Results: patent publication US9555009B2, “Ciprofloxacin loaded diethylaminoethyl cellulose nanoparticles” (priority 2014, dated 2017)

Conditions: XRD

SMILES: O=C(O)c1cn(C2CC2)c2cc(N3CCNCC3)c(F)cc2c1=O [pure ciprofloxacin, Ciprofloxacin]
- average crystallite size / particle size by Scherrer's equation: 3.22 nm
